Measured values taken from PubChem BioAssay (NCI).
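Method: 48-hour compound exposure of cells in 96-well plates, five concentrations, linear interpolation of endpoints. GI50 marks 50% less growth. TGI is the concentration that stops growth completely.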

Tests used:
Experiment in all cases: growth of human tumour cells (NCI), 48 h
MDA-MB-435 = tested on: MDA-MB-435
SK-MEL-28 melanoma = tested on: SK-MEL-28 melanoma
SF-295 CNS = tested on: SF-295 CNS
SK-OV-3 ovarian = tested on: SK-OV-3 ovarian
TK-10 renal = tested on: TK-10 renal
PC-3 prostate = tested on: PC-3 prostate
SK-MEL-2 melanoma = tested on: SK-MEL-2 melanoma
SR leukemia = tested on: SR leukemia
HL-60(TB) leukemia = tested on: HL-60(TB) leukemia
RPMI-8226 leukemia = tested on: RPMI-8226 leukemia

## COc1cc2cc(Oc3ccc(NC(=O)c4cccc5c4OCCO5)cc3)c(C)nc2cc1OC
MDA-MB-435
  GI50: 7.05 µM
  TGI: > 100 µM
SK-MEL-28 melanoma
  GI50: 19.2 µM
  TGI: > 100 µM
SF-295 CNS
  GI50: 2.91 µM
  TGI: > 100 µM
SK-OV-3 ovarian
  GI50: 49.8 µM
  TGI: > 100 µM
TK-10 renal
  GI50: 15.7 µM
  TGI: > 100 µM
PC-3 prostate
  GI50: 2.49 µM
  TGI: 16.2 µM
SK-MEL-2 melanoma
  GI50: 32.9 µM
  TGI: > 100 µM
SR leukemia
  GI50: 4.12 µM
  TGI: > 100 µM
HL-60(TB) leukemia
  GI50: 5.38 µM
  TGI: > 100 µM
RPMI-8226 leukemia
  GI50: 2.98 µM
  TGI: > 100 µM

## Fc1cc(-c2nnc3n2N=C(c2ccc(Cl)cc2Cl)CS3)c(Cl)cc1Cl
MDA-MB-435
  GI50: 24.5 µM
  TGI: 75.9 µM
SK-MEL-28 melanoma
  GI50: 40.2 µM
  TGI: > 100 µM
SF-295 CNS
  GI50: 36.4 µM
  TGI: > 100 µM
SK-OV-3 ovarian
  GI50: 48 µM
  TGI: > 100 µM
TK-10 renal
  GI50: 77.3 µM
  TGI: > 100 µM
PC-3 prostate
  GI50: 39.2 µM
  TGI: > 100 µM
SK-MEL-2 melanoma
  GI50: > 100 µM
  TGI: > 100 µM
SR leukemia
  GI50: > 100 µM
  TGI: > 100 µM
HL-60(TB) leukemia
  GI50: > 100 µM
  TGI: > 100 µM
RPMI-8226 leukemia
  GI50: 25.3 µM
  TGI: 95.7 µM

## COc1cc2nnn3c4ncccc4c(N=O)c3c2cc1OC
MDA-MB-435
  GI50: 3.55 µM
  TGI: 32.7 µM
SK-MEL-28 melanoma
  GI50: 9.1 µM
  TGI: > 100 µM
SF-295 CNS
  GI50: 4.99 µM
  TGI: 29.4 µM
SK-OV-3 ovarian
  GI50: 6.96 µM
  TGI: 41.7 µM
TK-10 renal
  GI50: 7.98 µM
  TGI: > 88.6 µM
PC-3 prostate
  GI50: 5.62 µM
  TGI: > 100 µM
SK-MEL-2 melanoma
  GI50: 16.5 µM
  TGI: > 68.1 µM
SR leukemia
  GI50: 0.0319 µM
HL-60(TB) leukemia
  GI50: 0.0506 µM
  TGI: > 100 µM
RPMI-8226 leukemia
  GI50: 0.173 µM
  TGI: > 100 µM

## O=C(Nc1cc(S(=O)(=O)c2ccc(Cl)cc2)ccc1Cl)c1cc(I)cc(I)c1O
MDA-MB-435
  GI50: 17.4 µM
  TGI: 37.8 µM
SK-MEL-28 melanoma
  GI50: 9.38 µM
  TGI: 24.6 µM
SF-295 CNS
  GI50: 15.1 µM
  TGI: 32 µM
SK-OV-3 ovarian
  GI50: 17.2 µM
  TGI: 31.5 µM
TK-10 renal
  GI50: 18.1 µM
  TGI: 34.2 µM
PC-3 prostate
  GI50: 14.4 µM
  TGI: 28.6 µM
SK-MEL-2 melanoma
  GI50: 16.6 µM
  TGI: 39.4 µM
SR leukemia
  GI50: 26 µM
  TGI: 60.1 µM
HL-60(TB) leukemia
  GI50: 14.5 µM
  TGI: 31.6 µM
RPMI-8226 leukemia
  GI50: 0.0515 µM
  TGI: 0.833 µM

## CC(C)(CO)N=Cc1ccccc1[O-].CC(C)(CO)N=Cc1ccccc1[O-].[Co+2]
MDA-MB-435
  GI50: 38.4 µM
  TGI: > 100 µM
SK-MEL-28 melanoma
  GI50: 58.6 µM
  TGI: > 100 µM
SF-295 CNS
  GI50: > 100 µM
  TGI: > 100 µM
SK-OV-3 ovarian
  GI50: > 100 µM
  TGI: > 100 µM
TK-10 renal
  GI50: 81.3 µM
  TGI: > 100 µM
PC-3 prostate
  GI50: 49.3 µM
  TGI: > 100 µM
SK-MEL-2 melanoma
  GI50: > 76.5 µM
  TGI: > 100 µM
SR leukemia
  GI50: 14.4 µM
  TGI: > 90.4 µM
HL-60(TB) leukemia
  GI50: 11.8 µM
  TGI: 79.4 µM
RPMI-8226 leukemia
  GI50: 30.2 µM
  TGI: > 93 µM

## O=C(O)C1C(C(=O)O)C2(Cl)C(Cl)=C(Cl)C1(Cl)C2(Cl)Cl.[Cd] (stereo not given)
MDA-MB-435
  GI50: 7.61 µM
  TGI: 25.2 µM
SK-MEL-28 melanoma
  GI50: 24.1 µM
  TGI: 54.7 µM
SF-295 CNS
  GI50: > 100 µM
  TGI: > 100 µM
SK-OV-3 ovarian
  GI50: 19.6 µM
  TGI: 36.2 µM
TK-10 renal
  GI50: 19 µM
  TGI: 34.7 µM
PC-3 prostate
  GI50: 15.3 µM
  TGI: 29.7 µM
SK-MEL-2 melanoma
  GI50: 9.22 µM
  TGI: 26.8 µM
SR leukemia
  GI50: 2.8 µM
  TGI: 32.7 µM
HL-60(TB) leukemia
  GI50: 28.4 µM
  TGI: 72.1 µM
RPMI-8226 leukemia
  GI50: 6.64 µM
  TGI: 48.4 µM

## NC(=O)c1cc(I)ccc1NC(=O)COc1ccccc1
MDA-MB-435
  GI50: 0.107 µM
  TGI: 0.359 µM
SK-MEL-28 melanoma
  GI50: 2.57 µM
  TGI: > 100 µM
SF-295 CNS
  GI50: 0.256 µM
  TGI: 3.39 µM
SK-OV-3 ovarian
  GI50: 3.21 µM
  TGI: > 69.1 µM
TK-10 renal
  GI50: 5.38 µM
  TGI: 50.9 µM
PC-3 prostate
  GI50: 0.471 µM
  TGI: > 100 µM
SK-MEL-2 melanoma
  GI50: 0.566 µM
  TGI: 16.3 µM
SR leukemia
  GI50: 0.285 µM
  TGI: > 74.1 µM
HL-60(TB) leukemia
  GI50: 0.335 µM
  TGI: 27.8 µM
RPMI-8226 leukemia
  GI50: 0.679 µM
  TGI: > 100 µM

## CCc1cccc(CC)c1/C=C/c1cncc(C(=O)NC)c1
MDA-MB-435
  GI50: 2.85 µM
  TGI: 10.5 µM
SK-MEL-28 melanoma
  GI50: 13.4 µM
  TGI: > 25 µM
SF-295 CNS
  GI50: 11.6 µM
  TGI: > 25 µM
SK-OV-3 ovarian
  GI50: 8.75 µM
  TGI: > 25 µM
TK-10 renal
  GI50: > 18.2 µM
  TGI: > 25 µM
PC-3 prostate
  GI50: 13.9 µM
  TGI: > 25 µM
SK-MEL-2 melanoma
  GI50: 10.9 µM
  TGI: > 22.6 µM
SR leukemia
  GI50: 7.24 µM
  TGI: > 25 µM
HL-60(TB) leukemia
  GI50: > 13.6 µM
  TGI: > 23.8 µM
RPMI-8226 leukemia
  GI50: 9.46 µM
  TGI: > 25 µM

## Nc1ncnc2c1c(-c1ccc(Oc3ccccc3)cc1)nn2C[C@@H]1SSC[C@@H]1O
MDA-MB-435
  GI50: 0.101 µM
  TGI: 0.256 µM
SK-MEL-28 melanoma
  GI50: 0.0824 µM
  TGI: 0.484 µM
SF-295 CNS
  GI50: 1.47 µM
  TGI: 5.49 µM
SK-OV-3 ovarian
  GI50: 0.498 µM
  TGI: 3.71 µM
TK-10 renal
  GI50: 0.705 µM
  TGI: 2.75 µM
PC-3 prostate
  GI50: 1.72 µM
  TGI: 10.1 µM
SK-MEL-2 melanoma
  GI50: 0.212 µM
  TGI: 0.502 µM
SR leukemia
  GI50: 0.0385 µM
  TGI: 0.27 µM
HL-60(TB) leukemia
  GI50: 0.576 µM
  TGI: 7.89 µM
RPMI-8226 leukemia
  GI50: 2.86 µM
  TGI: 14.6 µM

## CC[C@@]1(O)C(=O)OCc2c1cc1n(c2=O)Cc2cc3c(N)cccc3nc2-1
MDA-MB-435
  TGI: 2.16 µM
SK-MEL-28 melanoma
  TGI: 16.3 µM
SF-295 CNS
  GI50: 0.00874 µM
  TGI: 2.37 µM
SK-OV-3 ovarian
  TGI: 1.68 µM
TK-10 renal
  TGI: 38.2 µM
PC-3 prostate
  TGI: > 100 µM
SK-MEL-2 melanoma
  TGI: 1.99 µM
SR leukemia
  GI50: 0.00165 µM
HL-60(TB) leukemia
  TGI: 0.51 µM
RPMI-8226 leukemia
  TGI: 4.72 µM

## c1ccc(CC(NCCNC(Cc2ccccc2)c2ccccc2)c2ccccc2)cc1 (stereo not given)
MDA-MB-435
  GI50: 0.817 µM
  TGI: 2.22 µM
SK-MEL-28 melanoma
  GI50: 1.22 µM
  TGI: 2.8 µM
SF-295 CNS
  GI50: 0.372 µM
  TGI: 1.56 µM
SK-OV-3 ovarian
  GI50: 1.3 µM
  TGI: 3.93 µM
TK-10 renal
  GI50: 1.46 µM
  TGI: 4.21 µM
PC-3 prostate
  GI50: 0.409 µM
  TGI: 1.78 µM
SK-MEL-2 melanoma
  GI50: 1.16 µM
  TGI: 2.57 µM
SR leukemia
  GI50: 0.243 µM
  TGI: 0.587 µM
HL-60(TB) leukemia
  GI50: 0.322 µM
  TGI: 0.89 µM
RPMI-8226 leukemia
  GI50: 0.243 µM
  TGI: 0.524 µM
